# From US11485987B2, “Methods for inducing bioorthogonal reactivity” (University of Delaware, priority 2015, dated 2022)
# Tests used:
# [1] = FeCl2 catalyzed oxidation of a dihydrotetrazine in the presence of H2O2; settings: DHTz 100 μM, 1 mM H2O2, FeCl2 0.05 mM, deionized water
# Method: N′-Boc PEG10 dipyridyl-dihydrotetrazine was dissolved in deionized water containing 1 mM H2O2 to give a final DHTz concentration of 100 μM. The UV absorbance at 330 nm wavelength was monitored over 10 min. Then a 5 mM FeCl2 stock solution was added and mixed quickly to get a final FeCl2 concentration of 0.05 mM., followed by continuous monitoring of UV absorbance at 330 nm over 10 min. Oxidation was rapid and complete within ˜1 minute.
# [2] = NIR photocatalytic oxidation/Diels-Alder/payload release (methylene blue, 660 nm LED); settings: 60% H2O/MeOH, 660 nm LED, catalytic methylene blue, UV-vis
# Method: Encouraged by calculation, the inventors synthesized the compound 7, where p-nitrophenol serves as a model payload that can be readily monitored by UV and NMR (FIG. 7, panel A). To study the Diels-Alder/elimination sequence […], the inventors chose to oxidize 7 with Dess-Martin periodinane—a reagent that instantaneously oxidizes dihydrotetrazines to tetrazines. […] Upon LED irradiation (660 nm, 9.1 mW/cm^2) of 7 (28 μM) in MeOH in the presence of catalytic methylene blue (7 μM), complete oxidation/Diels-Alder/payload release within 15 minutes was observed (FIG. 7, panel B). In this photocatalytic reaction, aliquots by ESI-MS were analyzed, and intermediates 8 and 9 were not detected.
# […]. […] The reaction of 12 to produce 13 and 14 could also be promoted by irradiating a solution of 12 in 60% H2O/MeOH for 30 min with a 660 nm LED light source in the presence of catalytic amounts of methylene blue with monitoring by UV-Vis. The complete conversion to product 13 could be observed by UV-vis within 30 minutes.
Structure (SMILES),time to complete oxidation [1],time to complete conversion to product 13 [2]
CC(C)(C)OC(=O)NCCOCCOCCOCCOCCOCCOCCOCCOCCOCCOCCOCCNC(=O)CCCC(=O)Nc1ccc(C2=NNC(c3ccccn3)=NN2)nc1 [N′-Boc PEG10 dipyridyl-dihydrotetrazine],~1 min,
"COCCOCCOCCOCCOCCOCCOCCOCCOc1ccc(C2=NNC(c3ncccc3N(C)C(=O)/C=C/Oc3ccc(N(CCCl)CCCl)cc3)=NN2)nc1 [compound 12, (E)-N-(2-(6-(5-(2,5,8,11,14,17,20,23-octaoxapentacosan-25-yloxy)pyridin-2-yl)-1,4-dihydro-1,2,4,5-tetrazin-3-yl)pyridin-3-yl)-3-(4-(bis(2-chloroethyl)amino)phenoxy)-N-methylacrylamide]",,≤ 30 min
